Laboratory results from patent US6878388B1, “Vanadium compounds for treating proliferative cell disorders” (Parker Hughes Institute, priority 2000, dated 2005).

Assays:
[1] = tested on: MDA-MB-231 breast cancer xenografts; test: SCID mouse xenograft model of human breast cancer; assay type: in vivo, SCID mice
Description: FIGS. 1A-1B illustrate the in vivo antitumor activity of the vanadium compound, [VO(SO4)(Me2-Phen)2] against human glioblastoma and breast cancer in SCID mice. The effects of daily treatment with [VO(SO4)(Me2-Phen)2] (10 mg/kg/day) or 5% DMSO in PBS (given five days per week for four weeks beginning the day after inoculation) on tumor growth and progression of glioblastoma (FIG. 1A) and breast cancer (FIG. 1B) are illustrated. Comparisons between groups were done using the log-rank test.
The animal protocols used in this study were approved by the Parker Hughes Institute Institutional Animal Care and Use Committee (IACUC). […]
The right and left hind legs of the SCID mice were inoculated subcutaneously with 1×10^6 U87 human glioblastoma and 1×10^6 MDA-MB-231 beast cancer cells, respectively, in 0.1 mL PBS. […] Mice were monitored daily for health status as well as tumor growth and were sacrificed if they became moribund, developed tumors which impeded their ability to attain food or water, or at the ed of the six-week observation period. Tumors were measured using Vernier calipers three times per week. Tumor volumes were calculated according to the following formula, as described previously (Narla et al., Clin Cancer Res., 4: 1405-14, 1998; Friedman et al., Cancer Res., 55: 2853-2857, 1995): Tumor volume=(Width)^2(Length)/2. […]

[2] = tested on: T98 human glioblastoma cells; test: MTT cytotoxicity assay, T98; assay type: cell-based; details: 48 h incubation, 3 independent experiments, read-out: IC50 (mean ± SE)
Description: (§1) Human brain tumor cells lines U87 MG (Cat.# HTB-14), U118 MG (Cat. # HTB-15), U138 (Cat # HTB-16), U373 MG (CAT. # HTB-17), and T98G (Cat. # CRL-1690) and breast cancer cell lines BT-20 (Cat # HTB-19), MDA-MB-231 (Cat # HTB-26), MDA-MB-361 (Cat # HTB-27), and MCF-7 (Cat # HTB-22) were obtained from American Type Culture Collection (ATCC, Rockville, Md.) and maintained as continuous cell lines in Dulbecco's modified Eagles's medium (U87, U118, U138, U373, T98 and BT-20) or Leibovitz's L-15 medium (MDA-MB-231 and MDA-MB-361). All media were supplemented with 10% fetal calf serum (FCS), 4 mM glutamine, 100 U/ml penicillin G and […] streptomycin sulfate. All tissue culture reagents were obtained from Life Technologies Inc. (GIBCO-BRL, Gaithersburg, Md.).
(§2) The cytotoxicity of [VO(SO4)(Me2-Phen)2] against human cancer cell lines was analyzed using the MTT (3-[4,5-dimethylthiazol-2-yl]-2,5-diphenyl tetrazolium bromide) assay (Boehringer Mannheim Corp., Indianapolis, Ind.) as described previously (Narla et al., Clin Cancer Res., 4: 1405-1414, 1998). […] The absorbance at 540 nm (a reference wavelength of 690 nm was used) of the solution in each well was measured using a microplate reader (Labsystems). The percent survival and the IC50 values were calculated using Graphpad Prism v2.0 (Graphpad Software, Inc., San Diego, Calif.) as described previously (Narla et al., Supra). […]

[3] = tested on: U138 human glioblastoma cells; test: MTT cytotoxicity assay, U138; assay type: cell-based; details: 48 h incubation, 3 independent experiments, read-out: IC50 (mean ± SE)
Description: as §1, §2

[4] = tested on: U87 human glioblastoma cells; test: MTT cytotoxicity assay, U87; assay type: cell-based; details: 48 h incubation, 3 independent experiments, read-out: IC50 (mean ± SE)
Description: as §1, §2

## Cc1ccnc2c1ccc1c(C)ccnc12.Cc1ccnc2c1ccc1c(C)ccnc12.O=S(=O)([O-])[O-].[O]=[V+2] [[VO(SO4)(Me2-Phen)2], bis(4,7-dimethyl-1,10-phenanthroline) sulfatooxovanadium (IV)]
[1]; MDA-MB-231, 1.5 months after inoculation, 10 mg/kg i.p., vehicle control 641±98.7, P=0.004
  average size of tumors: 286.9±41.5 mm^3
[1]; follows the MDA-MB-231 sentence, 10 mg/kg/dose i.p., five days per week for four weeks
  mice remaining alive and free of detectable tumors for >19 days: 50%
[2]
  IC50: 3.9 ± 0.5 µM
[3]
  IC50: 2700 ± 400 nM
[4]
  IC50: 2100 ± 600 nM
